Results as given in patent US4417052A, “Phenyl-lower-alkyl piperidines and pyrrolidines” (Sterling Drug Inc., priority 1981, dated 1983).
Converted amounts (≈) assume the structure as drawn. Structures can show the parent of a compound that is named as a salt. Where two headings read alike, the source gives them in different places.

Tests used:
[1] = tested on: carrageenin-induced foot edema; assay: inhibition of carrageenin-induced foot edema test (C.E.); type: in vivo; settings: oral; for inhibition in vivo at 5 µmol/kg: dose 0.005 millimoles/kg; for inhibition in vivo at 5 µmol/kg / inhibition in vivo at 20 µmol/kg / inhibition in vivo at 80 µmol/kg / inhibition in vivo at 324 µmol/kg / inhibition in vivo at 4 µmol/kg: read-out: C.E. percent inhibition; for inhibition in vivo at 20 µmol/kg: dose 0.02 millimoles/kg; for inhibition in vivo at 80 µmol/kg: dose 0.08 millimoles/kg; for inhibition in vivo at 4 µmol/kg: dose 0.004 millimoles/kg
Procedure: (§1) Anti-inflammatory activity was determined using (1) the inhibition of carrageenin-induced foot edema test essentially described by Winter et al., Proc. Soc. Exp. Biol. and Med. 111, 554 (1962) as modified by Van Arman et al., J. Pharmacol. Exptl. Therap. 150, 328 (1965) and (2) a modification of the inhibition of adjuvant-induced arthritis test described by Pierson, J. Chronic Diseases 16, 863 (1963) and Glenn et al., Am. J. Vet. Res. 26, 1180 (1965).
(§2) The N-{2-,3- and 4-[R1 -(phenyl)-C(=X)]-phenyl-lower-alkyl}amines of formulas I, Ia and Ib of the invention have been tested in the carrageenin edema (CE) and adjuvant arthritis (AA) tests and found to have anti-inflammatory activity. For comparative purposes, data obtained in the carrageenin edema test on the reference compound (designated "Ref."), 4[(3-benzoylphenyl)methyl]morpholine, disclosed in French Patent 1,549,342, are also given. All data were obtained on oral administration.

[2] = tested on: adjuvant-induced arthritis; assay: inhibition of adjuvant-induced arthritis test (A.A.); type: in vivo; settings: oral; for inhibition in vivo at 5 µmol/kg: dose 0.005 millimoles/kg; for inhibition in vivo at 5 µmol/kg / inhibition in vivo at 20 µmol/kg / inhibition in vivo at 80 µmol/kg / inhibition in vivo at 324 µmol/kg: read-out: A.A. percent inhibition; for inhibition in vivo at 20 µmol/kg: dose 0.02 millimoles/kg; for inhibition in vivo at 80 µmol/kg: dose 0.08 millimoles/kg; for inhibition in vivo at 324 µmol/kg: dose 0.324 millimoles/kg
Procedure: as §1, §2

[3] = tested on: herpes simplex virus types 1 and 2; assay: in vitro anti-viral activity against herpes simplex viruses types 1 and 2 (BSC cell line, monkey kidney); type: cell-based; settings: read-out: MIC (Minimum Inhibitory Concentration)
Procedure: Monolayers of tissue cultures (BSC, cell line, monkey kidney) were infected with one hundred TCID50 (Tissue Culture Infectious Dose50) of infectious virus. After one hour of virus adsorption, fresh maintenance medium containing various concentrations of the test compounds was added to the monolayers. Cultures were then incubated at 36°-37° C., and after forty-eight and seventy-two hours, cultures were examined microscopically. […] In the presence of an active compound, cells grow normally similar to those in the tissue culture control. Simultaneously with the anti-viral evaluation, the toxicity of each compound was evaluated in separate cultures. Identical concentrations of the test compound were added to the tissue culture monolayers in the absence of virus. Those concentrations of the compound which show toxic effects on the cells were not considered in the anti-viral evaluation.

[4] = tested on: acetylcholine-induced abdominal constriction; assay: acetylcholine-induced abdominal constriction test (Ach); type: in vivo, mice
From the text: J. Pharmacol. Chemotherap. 32, 295 (1968); a modification of the anti-bradykinin test, which is also a primary analgesic screening procedure, described by Berkowitz et al., J. Pharmacol. Exp. Therap. 177, 500-508 (1971), Blane et al., J. Pharm. Pharmacol. 19, 367-373 (1967), Botha et al., Eur. J. Pharmacol. 6, 312-321 (1969) and Deffenu et al., J. Pharm. Pharmacol. 18, 135 (1966); the phenyl-p-quinone-induced writhing test, also a primary analgesic screening test, designed to measure the ability of a test agent to prevent phenyl-p-quinone-induced writhing in mice, described by Pearl and Harris, J. Pharmacol. Exptl. Therap. 154, 319-323 (1966); the rat tail flick radiant thermal heat analgesic (agonist) test described by D'Amour and Smith, J. Pharmacol. Exptl. Therap. 72, 74 (1941) as modified by Bass and VanderBrook, J. Am. Pharm. Assoc. Sci. Ed. 41, 569 (1956); and the phenazocine antagonist test, which is designed to measure the ability of a test agent to antagonize the effect of phenazocine in the above-indicated rat tail flick response test, described by Harris and Pierson, J. Pharmacol. Exptl. Therap. 143, 141 (1964).
The ED50 is the calculated Effective Dose in 50% of the test animals. The abbreviations s.c., p.o. and i.p. stand for subcutaneous, peroral and intraperitoneal routes of administration, respectively. The compounds are identified by the Example numbers above where their preparations are described.

bradykinin = assay: anti-bradykinin test (BDK); type: in vivo; settings: po
From the text: The test procedures used to determine the analgesic activities of the compounds have been described in detail in the prior art and are as follows: the acetylcholine-induced abdominal constriction test, which is a primary analgesic screening test designed to measure the ability of a test agent to suppress acetylcholine-induced abdominal constriction in mice, described by Collier et al., Brit. J. Pharmacol. Chemotherap. 32, 295 (1968); a modification of the anti-bradykinin test, which is also a primary analgesic screening procedure, described by Berkowitz et al., J. Pharmacol. Exp. Therap. 177, 500-508 (1971), Blane et al., J. Pharm. Pharmacol. 19, 367-373 (1967), Botha et al., Eur. J. Pharmacol. 6, 312-321 (1969) and Deffenu et al., J. Pharm. Pharmacol. 18, 135 (1966); the phenyl-p-quinone-induced writhing test, also a primary analgesic screening test, designed to measure the ability of a test agent to prevent phenyl-p-quinone-induced writhing in mice, described by Pearl and Harris, J. Pharmacol. Exptl. Therap. 154, 319-323 (1966); the rat tail flick radiant thermal heat analgesic (agonist) test described by D'Amour and Smith, J. Pharmacol. Exptl. Therap. 72, 74 (1941) as modified by Bass and VanderBrook, J. Am. Pharm. Assoc. Sci. Ed. 41, 569 (1956); and the phenazocine antagonist test, which is designed to measure the ability of a test agent to antagonize the effect of phenazocine in the above-indicated rat tail flick response test, described by Harris and Pierson, J. Pharmacol. Exptl. Therap. 143, 141 (1964).
Data so obtained for the species found active in one or more of these tests are given in TABLE C below, results being expressed either in terms of the ED50 or, in the acetylcholine-induced writhing test, as the percent inhibition of writhing in the test animals at a given dose level. The ED50 is the calculated Effective Dose in 50% of the test animals. The abbreviations s.c., p.o. and i.p. stand for subcutaneous, peroral and intraperitoneal routes of administration, respectively. The compounds are identified by the Example numbers above where their preparations are described.

[5] = Mus musculus, po, read-out: Ach ED50

SMILES	inhibition in vivo at 20 µmol/kg [1]	inhibition in vivo at 80 µmol/kg [1]	inhibition in vivo at 80 µmol/kg [2]	inhibition in vivo at 324 µmol/kg ([1]; dose 0.324 millimoles/kg)	ED50 [4, 5]	Ach percent inhibition of writhing ([4]; dose 25, s.c.)	further results
CC(CN1CCCCC1CC1CCCCC1)c1cccc(Cc2ccccc2)c1 (centres unmarked) [Example 10, 2-cyclohexylmethyl-1-[2-(3-benzylphenyl)propyl]piperidine]	26%	60%	91%				inhibition in vivo at 5 µmol/kg [1]: 7%; inhibition in vivo at 5 µmol/kg [2]: 25%; inhibition in vivo at 20 µmol/kg [2]: 63%; MIC [3]: 6 µg/mL (≈ 15.4 µM)
CC(CN1CCCCC1CC1CCCCC1)c1cccc(C(O)c2ccccc2)c1 (stereo not drawn) [Example 1, 2-cyclohexylmethyl-1-{2-[3-(α-hydroxybenzyl)phenyl]propyl}piperidine]	23%	60%	91%	73%	71 mg/kg	7%	inhibition in vivo at 5 µmol/kg [1]: 13%; inhibition in vivo at 5 µmol/kg [2]: 56%; inhibition in vivo at 20 µmol/kg [2]: 73%; Ach percent inhibition of writhing ([4]; dose 75, s.c.): 33%
CC(CN1CCNCC1)c1ccc(C(=O)c2ccccc2)cc1.Cl.Cl (centres unmarked) [Example 24C, 1-[2-(4-benzoylphenyl)propyl]piperazine dihydrochloride]		16%		41%	20 mg/kg		inhibition in vivo at 324 µmol/kg [2]: 63%
CC(CN1CCCCC1C1CCCCC1)c1cccc(C(=O)c2ccccc2)c1 (centres unmarked) [Example 7E, 2-Cyclohexyl-1-[2-(3-benzoylphenyl)propyl]piperidine]		33%	92%	58%		46%	Ach percent inhibition of writhing ([4]; dose 75, s.c.): 93%
CC(CN1CCCCC1CC1CCCCC1)c1cccc(C(O)c2ccc(Cl)cc2)c1 (stereo not drawn) [Example 5, 2-cyclohexylmethyl-1-{2-[3-(α-hydroxy-4-chlorobenzyl)phenyl]propyl}piperidine]	41%		88%				inhibition in vivo at 4 µmol/kg [1]: 14%; inhibition in vivo at 5 µmol/kg [2]: 64%; inhibition in vivo at 20 µmol/kg [2]: 70%; MIC [3]: 6 µg/mL (≈ 13.6 µM)
CC(C)(CN1CCC2(CC1)OCCO2)c1ccc(C(=O)c2ccccc2)cc1.Cl [Example 24L, 8-[2,2-dimethyl-2-(4-benzoylphenyl)ethyl]-1,4-dioxa-8-azaspiro[4,5]decane hydrochloride]		46%	24%	70%	60 mg/kg		
CC(C)(CN1CCOCC1)c1ccc(C(=O)c2ccccc2)cc1.Cl [Example 24K, 4-[2,2-dimethyl-2-(4-benzoylphenyl)ethyl]morpholine hydrochloride]		19%		60%	38 mg/kg		inhibition in vivo at 324 µmol/kg [2]: 7%
CC(CN1CCCCC1CCC1CCCCC1)c1cccc(C(=O)c2ccccc2)c1 (centres unmarked) [Example 7F, 2-(2-Cyclohexylethyl)-1-[2-(3-benzoylphenyl)propyl]piperidine]		33%	91%	51%		7%	toxicity ([2]; dose 0.16 millimoles/kg): Toxic; Ach percent inhibition of writhing ([4]; dose 75, s.c.): 33%
CC(CN1CCCCC1CC1CCCCC1)c1cccc(C(=O)c2ccccc2)c1 (centres unmarked) [12, 14]	41%	51%	87%	69%			inhibition in vivo at 5 µmol/kg [1]: 21%; inhibition in vivo at 5 µmol/kg [2]: 69%; inhibition in vivo at 20 µmol/kg [2]: 81%; ED50 ([4]; Mus musculus, po; read-out: Ach ED50): 55 mg/kg; Ach percent inhibition of writhing ([4]; dose 75, s.c.): 27%; ED50 (bradykinin): 63 mg/kg; MIC [3]: 6 µg/mL (≈ 14.9 µM)
CC(CN1CCC2(CC1)OCCS2)c1ccc(C(=O)c2ccccc2)cc1.Cl (centres unmarked) [Example 24F, 8-[2-(4-benzoylphenyl)propyl]-1-oxa-4-thia-8-azaspiro[4,5]decane hydrochloride]					18 mg/kg		
CC(C)(CN1CCOCC1)c1cccc(C(=O)c2ccccc2)c1.Cl [Example 24H, 4-[2,2-dimethyl-2-(3-benzoylphenyl)ethyl]morpholine hydrochloride]		0%		22%		7%	inhibition in vivo at 324 µmol/kg [2]: 8%; Ach percent inhibition of writhing ([4]; dose 50, s.c.): 13%; Ach percent inhibition of writhing ([4]; dose 150, s.c.): 73%
CC(CN1CCNCC1)c1cccc(C(=O)c2ccccc2)c1.Cl.Cl (centres unmarked) [Example 24G, 1-[2-(3-benzoylphenyl)propyl]piperazine dihydrochloride]		32%		52%	30 mg/kg		ED50 ([4]; Mus musculus, sc; read-out: Ach ED50): 5.6 mg/kg
CC(C)(CN1CCC2(CC1)OCCO2)c1cccc(C(=O)c2ccccc2)c1.Cl [Example 24J, 8-[2,2-dimethyl-2-(3-benzoylphenyl)ethyl]-1,4-dioxa-8-azaspiro[4,5]decane hydrochloride]		6%		8%		33%	inhibition in vivo at 324 µmol/kg [2]: 36%; Ach percent inhibition of writhing ([4]; dose 50, p.o.): 27%; Ach percent inhibition of writhing ([4]; dose 150, p.o.): 53%
CC(CN1CCSCC1)c1ccc(C(=O)c2ccccc2)cc1 (centres unmarked) [Example 24D, 4-[2-(4-benzoylphenyl)propy]thiomorpholine hydrochloride]		61%	28%	70%	50 mg/kg		
CC1CCCC(C)N1CCc1cccc(C(O)c2ccccc2)c1 (stereo not drawn) [Example 1B, 2,6-Dimethyl-1-{2-[3-(α-hydroxybenzyl)phenyl]ethyl}piperidine]	0%	13%					inhibition in vivo at 4 µmol/kg [1]: 0%; toxicity (entry in C.E. column) ([1]; dose 0.324 millimoles/kg): Toxic; MIC [3]: 50 µg/mL (≈ 155 µM)
